This note sets out measurements from publication PMC6006164, “Natural cyclopeptide RA-V inhibits the NF-κB signaling pathway by targeting TAK1” (Cell Death & Disease, 2018).

One assay has as its system NF-κB activation. Nature of the assay: Bioluminescence imaging of NF-κB-luciferase transgenic mice in the endotoxin shock model. Type of assay: in vivo. Particulars: RA-V micelles 0.25 mg/kg i.v. 52, 28, 4 h before LPS 10 mg/kg i.p.; n = 4; particularly 2 h after LPS. The procedure:
Fig. 2 RA-V prevents endotoxic shock and inhibits NF-κB activation in vivo. a–c RA-V prevents endotoxic shock in vivo. Mice (n = 6 per group) were intravenously injected with RA-V micelles (0.25 mg/kg body weight) or control micelles 52, 28, and 4 h before an intraperitoneal injection of LPS (10 mg/kg). One hour later, the relative levels of IL-6 and TNF-α mRNAs in the liver were assessed by quantitative RT-PCR (a), the serum IL-6 and TNF-α levels were quantified by ELISA (b), and the expression of p65 and IκBα phosphorylation in the liver were measured by immunoblot analysis c. d RA-V improved animal survival. Mice (n = 20 per group) were intravenously injected with RA-V micelles (0.25 mg/kg body weight) or control micelles 52, 28, and 4 h before intraperitoneal injection of LPS (20 mg/kg). Animal survival was recorded in 2–3 hours intervals. e RA-V inhibits NF-κB activation in vivo. […] The bioluminescent signals from all of the mice were detected and quantified. […]
The bioluminescence imaging of the NF-κB-luciferase transgenic mice was performed using a Xenogen IVIS Spectrum in vivo imaging system (Caliper Life Sciences). […] After 15 min, the in vivo bioluminescence was measured at the indicated times. The bioluminescent signals from all of the mice were detected and quantified.

Assay [1] has as its system p65 phosphorylation and IκBα phosphorylation. Nature of the assay: Western blot in HEK293T cells transfected with TRAF2, MyD88 or IKKβ. Type of assay: cell-based. Particulars: RA-V 48 h. The procedure:
To determine where RA-V acts in this pathway, TRAF2, MyD88, IKKβ, or p65 plasmid was transiently transfected into HEK293T cells together with the 5 × κB-lucieferase and pTK-Renilla reporters. […] Western blots were performed to investigate the effect of RA-V on NF-κB-associated proteins in HEK293T cells transfected with the TRAF2, MyD88, or IKKβ plasmid. […] Moreover, we used a computational method to predict where RA-V is likely to act in this pathway.
Fig. 3 RA-V represses NF-κB activation upstream of the IKK protein complex. a RA-V inhibited the TRAF2- and MyD88-induced expression of the NF-κB reporter in a dose-dependent manner. The indicated plasmids were transfected into HEK293T cells together with the 5 × κB-luciferase and pTK-Renilla reporters. Twenty-four hours after transfection, the cells were incubated with various concentrations of RA-V for 48 h before luciferase assays were performed. b RA-V inhibited TRAF2- and MyD88-induced p65 phosphorylation and IκBα phosphorylation in a dose-dependent manner. […]
For western blot analysis, the samples were equally subjected to sodium dodecyl sulfate polyacrylamide gel electrophoresis (SDS-PAGE) and transferred to polyvinylidene difluoride membranes (Millipore). […] The protein bands were detected with the SuperSignal West Pico Chemiluminescent Substrate (Pierce).
Background: A western blot detects proteins with antibodies after separation by electrophoresis.

The subject of another assay is HCT116 xenograft tumors. Nature of the assay: HCT116 xenograft in nude mice. Type of assay: in vivo, female athymic nude BALB/c mice. As to the method:
Fig. 7 RA-V inhibits tumor growth and the expression of NF-κB target genes in a nude xenograft model. a–d Inhibition of the growth of HCT116 and HepG2 xenograft tumors by RA-V. Female athymic nude BALB/c mice bearing HCT116 (n = 8) or HepG2 (n = 7) xenograft tumors were intravenously injected with various concentrations of RA-V micelles or control micelles every other day. 5-FU (10 mg/kg) group as positive control. Effects of RA-V on the growth curves of subcutaneoue xenografts of HCT116 (a) and HepG2 (b) and effects on the tumor weight in the HCT116 (c) and HepG2 (d) models. e–f Tumors removed were photographed. g–h The expression of the NF-κB target genes, IL-8, MCP-1, and CXCL-1, in HCT116 (g) and HepG2 (h) tumor tissue from vehicle- and various concentrations of RA-V-treated group was determined by quantitative RT-PCR and normalized to GADPH expression. *, p < 0.05; **, p < 0.01; ***, p < 0.001
In total, 2 × 10^6 HCT116 or 3 × 10^6 HepG2 cells were subcutaneously injected into the right dorsal flank of 6- to 8-week-old female athymic nude BALB/c mice. After tumor volumes reached 100 mm^3, the tumor-bearing mice were randomly divided into several groups. The mice bearing HCT116 (n = 8) or HepG2 xenograft tumors (n = 7) were received the intravenous injection of vehicle micelles or various concentrations of RA-V micelles every other day. 5-FU (10 mg/kg) group as positive control. Body weights and tumor volumes were recorded every other day. Tumor volumes were calculated using the following formula: tumor volume (mm^3) = 0.52 × length × width^2. At the end of the experiments, the mice were killed. Tumor xenografts of each mouse were removed and weighed. Part of each tumor tissue was stored at liquid nitrogen for quantitative RT-PCR analysis. […] Serum alanine transaminase(ALT), aspartate transaminase(AST), and creatine kinase(CK) were determined using relevant kits (Nanjing Jiancheng) according to the manufacturer’s specific instructions.

Setting [2] is: HCT116, n = 8, RA-V micelles i.v. every other day, vs control.

Take RA-V: the “NF-κB activation, in vivo bioluminescence” value with NF-κB activation is listed as “inhibited NF-κB activation”. Moreover, in assay [1], the “p65 and IκBα phosphorylation in cells transfected with IKKβ plasmid” value is “no effect”; the “p65 phosphorylation and IκBα phosphorylation in cells overexpressing TRAF2 or MyD88” value is “dose-dependently inhibited”. Further, in the assay with HCT116 xenograft tumors (setting [2]), the “tumor growth rate (tumor volume)” value was “significantly reduced” and the tumor weight result is “obviously lower”. Also, in the assay on HCT116 xenograft tumors (HCT116 xenograft, quantitative RT-PCR), the “expression of IL-8, MCP-1, and CXCL-1 in tumor tissue” value is recorded as “remarkable decreased”.
